The values that follow come from patent US8076159B2, “Ligand-regulable transactivation systems, methods of use thereof, methods of detecting estrogen receptor ligands, and methods of differentiating estrogen receptor ligand agonists and antagonists” (The Board of Trustees of the Leland Stanford Junior …, priority 2006, dated 2011).

The structures appear in SMILES notation.

In this experiment the target is T1, GAL4-ER (LBD)-VP16 fusion protein (Homo sapiens, UniProt P03372, G400V).
T1 construct: was used to replace the ER of 281-595; expressed in transfected cells; host or cells: 293T cells (A1, A2, A3, A5)
T1 sequence (P03372 281-595 G400V): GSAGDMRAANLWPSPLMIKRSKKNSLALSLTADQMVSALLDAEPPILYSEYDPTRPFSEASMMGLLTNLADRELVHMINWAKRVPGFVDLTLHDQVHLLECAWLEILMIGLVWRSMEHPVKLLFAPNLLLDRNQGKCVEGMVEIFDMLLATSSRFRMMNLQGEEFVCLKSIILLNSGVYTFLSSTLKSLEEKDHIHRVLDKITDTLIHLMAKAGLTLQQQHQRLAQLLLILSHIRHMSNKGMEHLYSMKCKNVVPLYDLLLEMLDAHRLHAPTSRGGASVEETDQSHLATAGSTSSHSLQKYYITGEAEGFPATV
Nature of the experiment: ER-ligand induced transactivation system (GAL4-ER(LBD)-VP16 activator + GAL4-E4-firefly luciferase reporter) in transiently co-transfected 293T cells. Type of experiment: cell-based. The source says:
Cell Transfection and Luciferase Assay. […] Volumes of Lipofectamine were as recommended by the manufacturer.
For orientation: A reporter such as luciferase makes a cellular process visible.

`C[C@]12CC[C@@H]3c4ccc(O)cc4C[C@@H](CCCCCCCCC[S+]([O-])CCCC(F)(F)C(F)(F)F)[C@H]3[C@@H]1CC[C@@H]2O` (some centres unmarked) [ICI]: for the setting “1 μM ligand”, the “fold luciferase signal in comparison to carrier control” value is on record as 300±80 fold.
For the compound `N.N.[Cl][Pt][Cl]` [non-ligand anticancer drug, cisplatinum], under “1 μM”, the “transactivation signal relative to carrier control (in words)” value was “not significantly different from the cells exposed to carrier control”.
